Structures are written as SMILES.

The test system of assay [1] is platelet aggregation induced by ADP in rat platelet-rich plasma (PRP). Briefly: Platelet aggregation inhibitory activity during oral administration in a rat (ex vivo, ADP-induced). Particulars: male Wistar rats, 1 mg/10 ml/kg orally, blood collected 4 hours after administration, ADP final concentration 3 μM, vs. control PRP (solvent only), read-out: Inhibition Rates (%). As for the experimental part: 1 mg/10 ml/kg of the test compound was orally administered by gavage to male rats (Slc: Wistar, age 8 to 9 weeks) that had been fasted overnight. 4 hours after administration, a syringe containing 1/10 volume of a 3.13% sodium citrate solution was used to collect blood from the abdominal aorta of a rat under anesthesia. From the collected blood, platelet-rich plasma (PRP) and platelet-poor plasma (PPP) were prepared according to the method described in the method for measuring human platelet aggregation inhibitory activity. PRP was left at rest at 16° C. for 30 minutes, and subsequently used for measurement.
200 μL of the separately collected PRP was dispensed into a cuvette for the aggregation test, followed by incubation at 37° C. for 2 minutes, and subsequently 2 μL of 0.3 mM ADP was added (final concentration 3 μM) to induce platelet aggregation.
Platelet aggregation was measured for 8 minutes using an aggregometer (MCM HEMA TRACER 313M; MC MEDICAL, INC.). With the light transmittance rate of PPP being set as an aggregation value of 100%, the maximum aggregation rate of PRP was determined, and compared with the maximum aggregation rate of control PRP (rat administered only with a solvent) to calculate inhibition rates.

Assay [2] concerns platelet aggregation induced by ADP in human platelet-rich plasma (PRP). The assay can be described thus: Human platelet aggregation inhibitory activity (ADP-induced, platelet-rich plasma). To be noted: 8 min, ADP final concentration 20 μM, maximum aggregation rate, measured for 8 minutes. It counts as cell-based. Here is the method: A blood collecting syringe containing 1/10 volume of a 3.8% sodium citrate solution was used to collect blood from radial vein of a healthy person. The collected blood was centrifuged at 180×g at room temperature for 10 minutes to separate the supernatant (platelet-rich plasma; PRP). After PRP was separately collected, the remaining blood was centrifuged at 1,600×g for 10 minutes to separately collect platelet-poor plasma (PPP) of the upper layer. PRP was left at rest at 16° C. for 30 minutes, and subsequently used for measurement.
200 μL of the separately collected PRP was dispensed into a cuvette for the aggregation test, and 1 μL of dimethylsulfoxide (control) or a test compound solution diluted with dimethylsulfoxide was added, followed by incubation at 37° C. for 2 minutes. Subsequently, 2 μL of 2 mM ADP was added (final concentration 20 μM) to induce platelet aggregation.
Platelet aggregation was measured for 8 minutes using an aggregometer (MCM HEMA TRACER 313M; MC MEDICAL, INC.). With the light transmittance rate of PPP being set as an aggregation value of 100%, the maximum aggregation rate was determined for each concentration of the test compounds to calculate IC50 values.

Usually inhibition stands for the change of the read-out against control, counted positive when it falls. The IC50 is the concentration needed to halve the response being measured. For `C[C@H](CC(=O)O)Oc1ccccc1-c1cc(F)c(C(=O)N2CCC(N3C(=O)C(C)(C)Oc4ncc(Cl)cc43)CC2)c(F)c1` [Example 51, (3R)-3-[(4′-{[4-(7-Chloro-3,3-dimethyl-2-oxo-2,3-dihydro-1H-pyrido[2,3-b][1,4]oxazin-1-yl)piperidin-1-yl]carbonyl}-3′,5′-difluorobiphenyl-2-yl)oxy]butanoic acid], in assay [1], the inhibition at 1 mg/kg was found to be 75%. Further, 7.7 µM corresponded to half-maximal inhibition in assay [2] (IC50).

With `C[C@H](CC(=O)O)Oc1ccccc1-c1ccc(C(=O)N2CCC(N3C(=O)C(C)(C)Oc4ncc(Cl)cc43)CC2)c(N)c1` [Example 50, (3R)-3-[(3′-Amino-4′-{[4-(7-chloro-3,3-dimethyl-2-oxo-2,3-dihydro-1H-pyrido[2,3-b][1,4]oxazin-1-yl)piperidin-1-yl]carbonyl}biphenyl-2-yl)oxy]butanoic acid], in assay [1], the inhibition at 1 mg/kg turned out to be 53%. The same compound showed a half-inhibitory concentration (IC50) in assay [2] of 0.87 µM.

As to `C[C@H](CC(=O)O)Oc1ccc(F)cc1-c1ccc(C(=O)N2CCC(N3C(=O)C(C)(C)Oc4ncc(Cl)cc43)CC2)c(F)c1` [Example 13, (3R)-3-[(4′-{[4-(7-Chloro-3,3-dimethyl-2-oxo-2,3-dihydro-1H-pyrido[2,3-b][1,4]oxazin-1-yl)piperidin-1-yl]carbonyl}-3′,5-difluorobiphenyl-2-yl)oxy]butanoic acid], in assay [1], the inhibition at 1 mg/kg was determined as 63%. In assay [2], this compound registered an IC50 of 4.1 µM.

As to `CC[C@H](CC(=O)O)Oc1ccccc1-c1cnc(C(=O)N2CCC(N3C(=O)C(C)(C)Oc4ncc(Cl)cc43)CC2)c(F)c1` [Example 41, (3R)-3-[2-(6-{[4-(7-Chloro-3,3-dimethyl-2-oxo-2,3-dihydro-1H-pyrido[2,3-b][1,4]oxazin-1-yl)piperidin-1-yl]carbonyl}-5-fluoropyridin-3-yl)phenoxy]pentanoic acid], the inhibition at 1 mg/kg in assay [1] is 56%. In assay [2], this compound registered an IC50 of 5.7 µM.

In the case of `C[C@H](CC(=O)O)Oc1ccccc1-c1ccc(C(=O)N2CCC(N3C(=O)C(C)(C)Oc4ncc(C#N)cc43)CC2)c(F)c1` [Example 52, (3R)-3-[(4′-{[4-(7-Cyano-3,3-dimethyl-2-oxo-2,3-dihydro-1H-pyrido[2,3-b][1,4]oxazin-1-yl)piperidin-1-yl]carbonyl}-3′-fluorobiphenyl-2-yl)oxy]butanoic acid], the inhibition at 1 mg/kg in assay [1] was determined as 71%. Also, 2.3 µM corresponded to half-maximal inhibition in assay [2] (IC50).

Consider `C[C@@H](Oc1ccccc1-c1ccc(C(=O)N2CCC(N3C(=O)C(C)(C)Oc4ncc(Cl)cc43)CC2)c(F)c1)[C@@H](C)C(=O)O` [Example 9, (2R,3R)-3-[(4′-{[4-(7-Chloro-3,3-dimethyl-2-oxo-2,3-dihydro-1H-pyrido[2,3-b][1,4]oxazin-1-yl)piperidin-1-yl]carbonyl}-3′-fluorobiphenyl-2-yl)oxy]-2-methylbutanoic acid], for which the inhibition at 1 mg/kg in assay [1] came out at 52%. In assay [2], this compound came in with a concentration for half-maximal inhibition (IC50) of 2.1 µM.

In assay [2], `CC1(C)Oc2ncc(Cl)cc2N(C2CCN(C(=O)c3ccc(-c4ccccc4OCC4(C(=O)O)CC4)cc3F)CC2)C1=O` [Example 23, 1-{[(4′-{[4-(7-Chloro-3,3-dimethyl-2-oxo-2,3-dihydro-1H-pyrido[2,3-b][1,4]oxazin-1-yl)piperidin-1-yl]carbonyl}-3′-fluorobiphenyl-2-yl)oxy]methyl}cyclopropanecarboxylic acid] displayed an IC50 of 5.2 µM.

In assay [2], `CC(C)(COc1ccccc1-c1ccc(C(=O)N2CCC(N3C(=O)C4(CC4)Oc4ncc(Cl)cc43)CC2)c(Cl)c1)C(=O)O` [Example 18, 3-[(3′-Chloro-4′-{[4-(7′-chloro-2′-oxospiro[cyclopropane-1,3′-pyrido[2,3-b][1,4]oxazin]-1′(2′H)-yl)piperidin-1-yl]carbonyl}biphenyl-2-yl)oxy]-2,2-dimethylpropanoic acid] had an IC50 of 10 µM. This IC50 lies about 1.9-fold higher than the previous one.

The values are drawn from patent US8729095B2, “3-(biaryloxy)propionic acid derivatives for prevention and/or treatment of thromboembolic diseases” (Daiichi Sankyo Company, Limited, priority 2009, dated 2014).
